Where two headings read alike, the source gives them in different places. Values belong to the compound of their own block, whether it stands above or below them. Where a SMILES comes first, the peptide text is derived from it. [ ]: non-standard residue; d: D form. The star is where a group is joined. Sta = CC(C)C[C@H](N)[C@@H](O)CC(=O)O; Isovaleryl = CC(C)CC(=O)*
Legend:
recombinant rat FAAH = target: T1, recombinant rat FAAH (Rattus norvegicus, UniProt P97612); assay: oleamide hydrolase activity of rat FAAH-transfected COS-7 cell extract and its inhibition (TLC); type: biochemical; details: versus untransfected and control transfected cells
T1 construct: expressed in transfected cells; host or cells: COS-7 cells, transient, pcDNA3; dounce-homogenised cell extract
T1 sequence (P97612 1-579): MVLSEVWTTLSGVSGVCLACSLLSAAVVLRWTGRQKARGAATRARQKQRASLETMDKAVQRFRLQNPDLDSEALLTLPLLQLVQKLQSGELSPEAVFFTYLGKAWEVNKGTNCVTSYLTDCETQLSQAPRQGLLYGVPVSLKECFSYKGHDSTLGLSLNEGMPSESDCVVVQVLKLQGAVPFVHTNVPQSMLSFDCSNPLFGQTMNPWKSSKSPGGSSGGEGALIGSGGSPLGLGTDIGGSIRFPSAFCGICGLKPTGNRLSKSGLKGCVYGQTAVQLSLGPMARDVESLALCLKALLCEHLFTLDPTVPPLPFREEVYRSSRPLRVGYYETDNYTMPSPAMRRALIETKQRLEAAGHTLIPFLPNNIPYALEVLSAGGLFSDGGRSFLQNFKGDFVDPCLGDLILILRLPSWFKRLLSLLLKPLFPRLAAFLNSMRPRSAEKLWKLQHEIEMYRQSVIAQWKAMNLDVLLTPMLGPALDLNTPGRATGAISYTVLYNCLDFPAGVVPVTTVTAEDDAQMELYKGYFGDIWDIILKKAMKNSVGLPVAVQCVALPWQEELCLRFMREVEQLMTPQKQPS
Experimental: The following thin layer chromatography (TLC) protocol is used for assaying cis-9,10 octadecenoamide hydrolysis activity, also referred to as fatty-acid amide hydrolase activity. Oleamide is first labeled with ^14C. To accomplish this, ^14C-Oleic acid (1-10 μM, Moravek Biochemicals, 5-50 μCi/μM) in CH2CL2 (200 μL, 0.005-0.05 M) at 0° C. was treated with excess oxalyl chloride and the reaction mixture was warmed to 25° C. for 6 hours. The reaction mixture was then concentrated under a constant stream of gaseous nitrogen and the remaining residue was cooled to 0° C. and treated with excess saturated aqueous ammonium hydroxide. After 5 minutes, the reaction mixture was partitioned between Et)Ac (1.5 mL) and 10% HCl (1.0 mL). The organic layer was then washed with water (1.0 mL) and concentrated under a constant stream of gaseous nitrogen to provide ^14C-oleamide in quantitative yield as judged by TLC (60% EtOAc in hexanes; oleamide Rf−0.2; oleic acid Rf−0.8). […]
While untransfected COS-7 cells contained negligible amounts of oleamide hydrolase activity, COS-7 cells transfected with the rat FAAH cDNA expressed high levels of oleamide hydrolase activity (FIG. 15A). The assay was performed as described in Section B where by TLC the conversion of oleamide to oleic acid was assessed. […]

[1] = target: T2, recombinant expressed rat FAAH (Rattus norvegicus, UniProt P97612); assay: FAAH hydrolysis assays with 14C-labeled fatty acid amide substrates (TLC, scintillation counting); type: biochemical; details: for Rate of Hydrolysis: 35 μg transfected COS-7 cell protein, 5 minutes, 37° C.
T2 construct: expressed in transfected cells; host or cells: COS-7 cells, transient, pcDNA3; dounce-homogenised cell extract
T2 sequence (P97612 1-579): T1 sequence (P97612 1-579)
Experimental: Therefore, COS-7 cells transfected with the rat FAAH cDNA were assayed for anandamide hydrolase activity. To assess the enzymatic activity of the expressed recombinant fatty acid amide hydrolases of this invention on labeled anandamide, the following enzymatic assay was performed. ^14C-anandamide was synthesized as follows: 12.5 μCi (specific activity of 50 μCi/μM) of ^14C arachidonic acid (Moravek Biochemicals) was dissolved in 100 μl CH2Cl2, cooled to 0° C., and treated with excess oxalyl chloride. The reaction mixture was stirred at 25° C. for 6 hours, after which time the solvent was evaporated. The remaining residue was cooled to 0° C., treated with a large excess of ethanolamine, and stirred at 25° C. for 15 minutes. The reaction mixture was then partitioned between ethyl acetate and 2 M HCl, and the organic layer was washed with water and then evaporated to dryness. The resulting ^14C-anandamide was diluted with unlabeled anandamide to a final specific activity of 5 μCi/μM in ethanol. Approximately 1 μCi of ^14C-anandamide and 20 μl of dounce homogenized COS-7 cell extract were used for each anandamide hydrolase assay as detailed above for the oleamide hydrolase assays. Briefly, FAAH hydrolysis assays were conducted in triplicate with 100 μM substrate, 35 μg of rat transfected COS-7 cell protein for 5 minutes at 37° C. (except in the case of stearic amide, where due to low solubility, 20 μM substrate comparison to oleamide were conducted). Products were separated on TLC as described previously, scraped into scintillation fluid, and radioactivity was quantitated by scintillation counting. Substrate hydrolysis in the presence of equal amounts of untransfected COS-7 cell protein extract served as background control in all cases and was substracted from FAAH hydrolysis rates to give the data as presented below.
To further assess the substrate specificity spectrum of enyzmatic hydolytic activity of the recombinant expressed proteins of this invention, other ^14C-labeled fatty acid amides were synthesized as described in Section B6 and above for ^14C-oleamide, with the exception of anandamide as described.
Where indicated in the table the anandamide and oleamide hydrolysis rates are considered to be 100% of FAAH activity to which other fatty acid amide hydrolysis rates are compared.

rats = assay: effect on spontaneous behavior of rats after ip injection (induction of sleep); type: in vivo, rat; details: for sleep-inducing pharmacological effect compared with cis-9,10-octadecenoamide: rats, ip
Experimental: Synthetic cis-9,10-octadecenoamide was injected (ip) into rats in order to test its effect on spontaneous behavior at different doses: 1 (n=2), 2 (n=2), 5 (n=7), 10 (n=10), 20 (n=2), and 50 (n=2) mg, where n = number of rats tested. […] However, at a threshold of 5 mg and above there was a marked effect consisting of an induction of long-lasting motor quiescence associated with eyes closed, sedated behavior characteristic of normal sleep. Also as with normal sleep, the rats still responded to auditory stimuli with orienting reflex and sustained attention toward the source of stimulation. In addition, motor behavior was impaired. The latency to behavioral sedation following administration was about 4 minutes and subjects were normally active again after 1 hour (5 mg), 2 hour (10 mg), or 2.5 hour (20 mg and 50 mg).
We have compared cis-9,10-octadecenoamide to vehicle and the synthetic analogs listed in FIG. 1 to estimate the structural specificity of its sleep-inducing potential. […] More particularly, male Sprague-Dawley rats (300 g at the time of surgery) were implanted under halothane anesthesia (2-3%) with a standard set of electrodes for sleep recordings. This included two screw electrodes placed in the parietal bone over the hippocampus to record the subjects electroencephalogram (EEG) and two wire electrodes inserted in the neck musculature to record postural tone through electromyographic activity (EMG). Rats were housed individually with at libitum access to food and water. The dark-light cycle was controlled (12:12, lights on a 10:00 p.m.). One week after the surgery, rats were habituated to the recording conditions for at least three days. Upon the completion of the habituation period, rats received 2 milliliter (ip) of either: vehicle (5% ethanol/saline solution), cis-9,10-octadecenoamide (10 mg), or oleic acid (10 mg). […] Sleep recordings were visually scored and four stages were determined: wakefulness, slow-wave-sleep 1 (SWS1), slow-wave-sleep 2 (SWS2), and rapid eye movement (REM) sleep.

[2] = target: T3, FAAH activity of a rat brain membrane fraction (Rattus norvegicus, UniProt P97612); type: biochemical; details: for inhibition of cis-9,10-octadecenoamide hydrolysis (lipid amidase) activity: 1 mM
T3 construct: Cis-9,10-octadecenoamide with rat brain membrane fraction +1 mM phenylmethylsulfonyl fluoride (PMSF); from tissue; host or cells: rat brain membrane fraction
T3 sequence (P97612 1-579): T1 sequence (P97612 1-579)
Experimental: In each case the enzymic reaction is performed is a separate reaction vessel and the product is spotted onto a TLC plate.

[3] = system: amidase activity which catalyzes both the hydrolysis and synthesis of arachidonylethanolamide (anandamide); details: cited from earlier work
neuroblastoma cells = details: anandamide incubated with neuroblastoma cells; cited from earlier work

Compound: CCCCC/C=C\C/C=C\C/C=C\C/C=C\CCCC(=O)NCCO [Anandamide, arachidonylethanolamide]
- conversion of labeled substrate by rat FAAH-transfected COS-7 cells (qualitative, TLC) (recombinant rat FAAH): high levels of anandamide hydrolase activity
- % of FAAH activity (anandamide hydrolysis rate = 100%) ([1]; 100 μM substrate): 100%
- Rate of Hydrolysis ([1]; 100 μM substrate): 333 ± 30 nmol/min/mg

Compound: CCCCCCCCC/C=C\CCCCCCC(N)=O [Compound 3, Cis-8,9-octadecenoamide]
- sleep-inducing pharmacological effect compared with cis-9,10-octadecenoamide (rats): substantial reduction in both the degree and duration of the pharmacological effects

Compound: CCCCCC/C=C\CCCCCCCCCC(N)=O [Compound 4, Cis-11,12-octadecenoamide]
- sleep-inducing pharmacological effect compared with cis-9,10-octadecenoamide (rats): substantial reduction in both the degree and duration of the pharmacological effects

Compound: CCCCCCCC/C=C\CCCCCCCCCCCC(N)=O [Compound 6, Erucamide]
- sleep-inducing pharmacological effect compared with cis-9,10-octadecenoamide (rats): substantial reduction in both the degree and duration of the pharmacological effects

Compound: [Cl][Hg][Cl] [HgCl2, mercuric chloride]
- inhibition of lipid amidase activity ([2]; 50 mM): inhibited

- % of FAAH activity (anandamide hydrolysis rate = 100%) ([1]; 100 μM substrate): 24.3%
- Rate of Hydrolysis ([1]; 100 μM substrate): 81 ± 7 nmol/min/mg
Compound: CCCCCCCCCCCCCC(N)=O [Myristic Amide, myristic amide]

Compound: O=S(=O)(F)Cc1ccccc1 [PMSF, phenylmethylsulfonyl fluoride]
- inhibition of cis-9,10-octadecenoamide hydrolysis (lipid amidase) activity [2]: inhibited
- inhibition of cis-9,10-octadecenoamide hydrolysis (lipid amidase) activity ([2]; listed as phenylmethylsulfonyl fluoride): completely inhibited
- inhibition of the amidase activity ([3]; 1.5 mM concentration): completely inhibited

- % of FAAH activity (anandamide hydrolysis rate = 100%) ([1]; 100 μM substrate): 9.9%
- Rate of Hydrolysis ([1]; 100 μM substrate): 33 ± 2 nmol/min/mg
Compound: CCCCCCCCCCCCCCCC(N)=O [Palmitic Amide, palmitic amide]

- % of FAAH activity (oleamide hydrolysis rate = 100%) ([1]; 20 μM substrate): 5.8%
- Rate of Hydrolysis ([1]; 20 μM substrate): 2.3 ± 1 nmol/min/mg
Compound: CCCCCCCCCCCCCCCCCC(N)=O [Stearic Amide, stearic amide]

Compound: CCCCCCCC/C=C/CCCCCCCC(N)=O [Trans-9,10-octadecenoamide]
- duration of the biological (sleep-inducing) effect (rats; 10 mg per rat): one hour
- sleep-inducing pharmacological effect compared with cis-9,10-octadecenoamide (rats): much less potent

Compound: N=C(N)c1ccccc1 [benzamidine]
- effect of other inhibitors on the amidase activity [3]: little or no effect

Compound: CC(C)C[C@H](NC(=O)[C@@H](NC(=O)N[C@@H](Cc1ccccc1)C(=O)O)[C@@H]1CCN=C(N)N1)C(=O)N[C@H](C=O)Cc1ccccc1 [chymostatin]
- effect of other inhibitors on the amidase activity [3]: little or no effect

Compound: CC(=O)N[C@@H](CC(C)C)C(=O)N[C@@H](CC(C)C)C(=O)N[C@H](C=O)CCCNC(=N)N [leupeptin]
- effect of other inhibitors on the amidase activity [3]: little or no effect

Compound: CCCCCCCC/C=C\CCCCCCCC(=O)O [oleic acid, Oleic Acid]
- sleep-inducing pharmacological effect compared with cis-9,10-octadecenoamide (rats): nor oleic acid (5) showed any overt behavioral effect

Compound: CC(C)CC(=O)N[C@H](C(=O)N[C@H](C(=O)N[C@@H](CC(C)C)[C@@H](O)CC(=O)N[C@@H](C)C(=O)N[C@@H](CC(C)C)[C@@H](O)CC(=O)O)C(C)C)C(C)C [pepstatin] (Isovaleryl-VV[Sta]A[Sta]-OH)
- effect of other inhibitors on the amidase activity [3]: little or no effect

Compound: aprotinin
- effect of other inhibitors on the amidase activity [3]: little or no effect

Compound: arachidonyl trifluoromethyl ketone
- increase of anandamide levels in the presence of the inhibitor (neuroblastoma cells): 5 fold

Reference: patent US6699682B2, “Assay for inhibitors of fatty-acid amide hydrolase” (The Scripps Research Institute, priority 1995, dated 2004)
